# From the supplement of paper PMC10307832
# Key:
# Test in all cases: relative viability (nuclei count vs DMSO), 5 days (fraction); higher = more cells survive
# [1] = compound: C1/C(=C\C2=CC=CS2)/C(=O)/C(=C/C3=CC=CS3)/C1 + CC(C)C[C@H](NC(=O)[C@H](Cc1ccccc1)NC(=O)c1cnccn1)B(O)O [Bortezomib] (partner 0.002 µM)
# How it was run: (§1)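 Relative viability was taken as the ratio of nuclei in treated wells to nuclei in vehicle wells. Lung cancer cell lines in 1536-well plates received compounds by pin tool one day after seeding, either one drug alone or a fixed anchor-drug dose plus five library-drug doses (not always all listed) in √10 steps. Nuclei were counted on 4× images after 5 days of treatment, and values are medians of duplicate plates.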
# [2] = compound: C1/C(=C\C2=CC=CS2)/C(=O)/C(=C/C3=CC=CS3)/C1 + Cc1nc(Nc2ncc(C(=O)Nc3c(C)cccc3Cl)s2)cc(N2CCN(CCO)CC2)n1 [Dasatinib] (partner 0.075 µM)
# How it was run: as §1
# [3] = compound: C1/C(=C\C2=CC=CS2)/C(=O)/C(=C/C3=CC=CS3)/C1 + CC(=O)c1c(C)c2cnc(Nc3ccc(N4CCNCC4)cn3)nc2n(C2CCCC2)c1=O [Palbociclib] (partner 0.5 µM)
# How it was run: as §1
# [4] = compound: C[C@]12O[C@H](C[C@]1(O)CO)n1c3ccccc3c3c4c(c5c6ccccc6n2c5c31)CNC4=O [Lestaurtinib] + N=C(N)NC(=N)NCCc1ccccc1 [Phenformin] (partner 250 µM)
# How it was run: as §1
cell line,measurement,setting,value
UMC-11,relative viability,[1]; first compound 0.2 µM,0.717
same,relative viability,[1]; first compound 0.6325 µM,0.579
same,relative viability,[1]; first compound 2 µM,0.639
same,relative viability,[1]; first compound 20 µM,0.597
same,relative viability,[2]; first compound 0.2 µM,0.555
same,relative viability,[2]; first compound 0.6325 µM,0.507
same,relative viability,[2]; first compound 20 µM,0.472
same,relative viability,[3]; first compound 0.2 µM,0.308
same,relative viability,[3]; first compound 0.6325 µM,0.367
same,relative viability,[3]; first compound 2 µM,0.322
same,relative viability,[3]; first compound 6.325 µM,0.334
same,relative viability,[3]; first compound 20 µM,0.338
same,relative viability,[4]; first compound 0.005 µM,0.359
same,relative viability,[4]; first compound 0.01581 µM,0.327
same,relative viability,[4]; first compound 0.05 µM,0.239
same,relative viability,[4]; first compound 0.1581 µM,0.176
same,relative viability,[4]; first compound 0.5 µM,0.144
